The text below walks through data of publication PMC10057980, “Pharmacokinetics of Orally Applied Cannabinoids and Medical Marijuana Extracts in Mouse Nervous Tissue and Plasma: Relevance for Pain Treatment” (Pharmaceutics, 2023).

Data set [1] has as its system mechanical hypersensitivity in spared nerve injury (SNI) mice. The data set can be described thus: Von Frey mechanical thresholds in the spared nerve injury (SNI) model. Format: in vivo, C57BL/6J mice. Particulars: day 7 after surgery, single oral dose: 20 mg/kg pure CBD or THC, 40 mg/kg THC+ extract, 1560 mg/kg THC- extract, CBD effect at 4 h, p = 0.022 vs vehicle. The procedure: SNI surgery was performed as previously described. In short, mice were anesthetized by intraperitoneal (i.p.) injections of 10 mg/kg Xylazine (AniMedica GmbH—a LIVISTO company, Senden, Germany) and 100 mg/kg Ketamine (AniMedica GmbH—a LIVISTO company, Senden, Germany). The skin on the lateral surface of the thigh was incised and the sciatic nerve exposed by separating the biceps femoris muscle through incision of the connective tissue without wounding the muscle. The common peroneal and tibial nerves were ligated with 4-0 Vicryl (Sh-1 plus; Raritan, NJ, USA) and a portion of 3 mm length was excised around the ligation site. Care was taken to avoid any mechanical damage to the sural nerve. After dissection, the muscle and skin were sutured using 4-0 Vicryl. Mice were left to recover at 37 °C until they regained consciousness.
The von Frey test was performed as previously described. In brief, mice were placed in a Plexiglas chamber on an elevated iron-mesh floor and allowed to habituate before testing. […] Withdrawal thresholds were calculated according to the up-and-down method. Von Frey results were analysed using repeated measure ANOVA.

On the set-up of data set [2]: method as in PMID 21796370. Particulars: CBD orally given to mice; cited from earlier work.
On the set-up of data set [3]: method as in PMID 12648025, PMID 17712819, PMID 30534073. The following applies: cited from earlier work.
A short description of data set [4]: Cannabinoid and metabolite concentrations in plasma, brain and spinal cord after single oral gavage (LC-MS/MS, non-compartmental PK). The following applies: mice.
Setting [5] is: high dose, oral gavage (40 mg/kg THC+ extract, 20 mg/kg pure THC), plasma, brain and spinal cord.

Consider `C=C(C)[C@@H]1CCC(C)=C[C@H]1c1c(O)cc(CCCCC)cc1O` [CBD, cannabidiol], for which the “effect on mechanical withdrawal thresholds (von Frey)” value in data set [1] is reported as “alleviated mechanical hypersensitivity”. Further, in data set [2], the “brain–plasma ratio” value was 3.54. In data set [3], the “time detectable in organs including the brain after application” value is “more than 24 h”. Moreover, the “time of maximum CBD concentration” value in data set [4] (pure CBD compound, 1 and 20 mg/kg bodyweight, oral) is recorded as 2 h. Also, the “absorption rate of CBD compared with THC, brain” value in data set [4] (pure compounds, oral, brain) is given as 2.8 fold. Also, the “absorption rate of CBD compared with THC, spinal cord” value in data set [4] (pure compounds, oral, spinal cord) worked out at 1.7 fold.

In the case of `CCCCCc1cc(O)c2c(c1)OC(C)(C)[C@@H]1CCC(C)=C[C@@H]21` [pure THC, Δ9-Tetrahydrocannabinol], the “effect on mechanical withdrawal thresholds (von Frey)” value in data set [1] is on record as “did not affect mechanical withdrawal thresholds”. Moreover, the “time detectable in organs including the brain after application” value in data set [3] is on record as “more than 24 h”. The “time of peak concentration of OH-THC” value in data set [4] (high dose, oral (40 mg/kg THC+ extract, 20 mg/kg pure THC), brain tissue) came out at 2 h. For the same compound, in data set [4] (setting [5]), the “time at which Δ9-THC was detectable in all tissues” value is recorded as 1 h and the “time of maximum Δ9-THC concentration” value came out at 2 h. The “Δ9-THC concentrations in all sample types” value in data set [4] (low dose, oral gavage (2 mg/kg THC+ extract, 1 mg/kg pure THC), plasma, brain and spinal cord) is given as “negligible concentrations”.
